Assay results as given in ChEMBL document CHEMBL1137543, “Phenylimidazole derivatives as specific inhibitors of bacterial enoyl-acyl carrier protein reductase FabK” (Bioorg Med Chem, 2007).
Values after ≈ are worked out from the molar mass of the structure shown.

Experiments:
[1] = target: T1, Enoyl-[acyl-carrier-protein] reductase [NADH] FabI (Escherichia coli K-12, UniProt P0AEK4); assay: Inhibition of Escherichia coli enoyl-ACP reductase FabI
T1 sequence (P0AEK4 whole entry): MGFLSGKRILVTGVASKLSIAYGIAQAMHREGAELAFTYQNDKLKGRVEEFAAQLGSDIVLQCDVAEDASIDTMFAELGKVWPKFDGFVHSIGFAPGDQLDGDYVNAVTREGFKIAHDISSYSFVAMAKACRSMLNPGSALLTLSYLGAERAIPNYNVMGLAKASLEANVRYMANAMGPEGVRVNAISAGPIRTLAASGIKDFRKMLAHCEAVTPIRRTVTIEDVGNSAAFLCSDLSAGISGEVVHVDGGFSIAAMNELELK

[2] = target: T2, Enoyl-(Acyl-carrier-protein) reductase (Streptococcus pneumoniae, UniProt Q9FBC5); assay: Inhibition of Streptococcus pneumoniae enoyl-ACP reductase FabK
T2 sequence (Q9FBC5 whole entry): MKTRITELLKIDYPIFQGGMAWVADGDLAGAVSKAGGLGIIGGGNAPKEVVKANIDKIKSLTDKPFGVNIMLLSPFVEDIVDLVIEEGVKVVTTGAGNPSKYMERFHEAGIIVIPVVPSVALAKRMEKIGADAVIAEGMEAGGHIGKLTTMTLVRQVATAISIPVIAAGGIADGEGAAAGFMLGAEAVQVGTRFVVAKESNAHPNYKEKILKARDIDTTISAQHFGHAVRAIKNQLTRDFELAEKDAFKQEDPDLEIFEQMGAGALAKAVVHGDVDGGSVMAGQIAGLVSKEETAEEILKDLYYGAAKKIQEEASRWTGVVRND

Streptococcus pneumoniae = assay: Antibacterial activity against Streptococcus pneumoniae KU197 mutant by broth microdilution method; type: functional
K562 = assay: Cytotoxicity against human K562 cells; type: functional, cell-based

COc1ccc2sc(NC(=O)NCc3nc4ccccc4[nH]3)nc2c1 gave an IC50 [1] greater than 32 µM and an IC50 [2] greater than 32 µM.

O=C(CSc1nc2ccccc2[nH]1)NCc1nc2ccccc2s1 showed an IC50 [1] greater than 32 µM, an MIC (Streptococcus pneumoniae) greater than 32 µg/mL and an IC50 [2] greater than 32 µM.

With O=C(NCc1nc2ccccc2[nH]1)Nc1nc2ccccc2s1 the IC50 [1] was greater than 32 µM, the MIC (Streptococcus pneumoniae) was 32 µg/mL (≈ 99 µM) and the IC50 [2] was 6.9 µM.

In the case of CS(=O)(=O)c1ccc2nc(NC(=O)NCc3ccc(-c4ccccn4)s3)sc2c1, the IC50 [1] is reported as greater than 32 µM, the MIC (Streptococcus pneumoniae) is reported as greater than 32 µg/mL and the IC50 [2] is reported as 3.4 µM.

With O=C(NCc1ncc(-c2cccc(Br)c2)[nH]1)Nc1ncc(Sc2ccccn2)s1 the IC50 [1] was greater than 32 µM and the MIC (Streptococcus pneumoniae) was 16 µg/mL (≈ 32.8 µM).

For O=C(NCc1nc(-c2ccccc2)c[nH]1)Nc1ncc(Sc2ccc(C(=O)O)cc2)s1, the IC50 [1] was greater than 32 µM, the MIC (Streptococcus pneumoniae) was 8 µg/mL (≈ 17.7 µM) and the IC50 [2] was 0.098 µM.

O=C(CO/N=C/c1cccc([N+](=O)[O-])c1)Nc1nc2ccccc2s1 was tested, and the IC50 [1] was greater than 32 µM, the MIC (Streptococcus pneumoniae) was greater than 32 µg/mL and the IC50 [2] was 1.1 µM.

O=C(Nc1nc2ccccc2s1)OCc1nc2ccccc2[nH]1 was tested, and the IC50 [1] was greater than 32 µM, the MIC (Streptococcus pneumoniae) was greater than 32 µg/mL and the IC50 [2] was greater than 32 µM.

Compound O=C(NCc1nc2ccccc2[nH]1)Nc1nc2ccc(F)cc2s1 has an IC50 [1] greater than 32 µM and an IC50 [2] of 6.4 µM.

In the case of O=C(CSc1nc2ccccc2[nH]1)Nc1nc2ccccc2s1, the IC50 [1] is reported as greater than 32 µM, the MIC (Streptococcus pneumoniae) is reported as greater than 32 µg/mL and the IC50 [2] is reported as greater than 32 µM.

In the case of Oc1cc(Cl)ccc1Oc1ccc(Cl)cc1Cl [TRICLOSAN], the IC50 [2] is reported as greater than 32 µM.

In the case of COc1ccc2nc(NC(=O)NCc3nc4ccccc4[nH]3)sc2c1, the IC50 [1] is reported as greater than 32 µM, the MIC (Streptococcus pneumoniae) is reported as 16 µg/mL (≈ 45.3 µM) and the IC50 [2] is reported as 2 µM.

Compound CS(=O)(=O)c1ccc2nc(NC(=O)NCCc3cnc[nH]3)sc2c1 has an IC50 [1] greater than 32 µM and an IC50 [2] greater than 32 µM.

Work on NC(=O)c1ccc(Sc2cnc(NC(=O)NCc3nc(-c4ccccc4)c[nH]3)s2)cc1 yielded an IC50 [1] greater than 32 µM, an MIC (Streptococcus pneumoniae) of 2 µg/mL (≈ 4.44 µM) and an IC50 [2] of 0.037 µM.

Work on N#Cc1ccc2nc(NC(=O)NCc3nc4ccccc4[nH]3)sc2c1 yielded an IC50 [1] greater than 32 µM, an MIC (Streptococcus pneumoniae) of 8 µg/mL (≈ 23 µM) and an IC50 [2] of 4.5 µM.

Work on O=C(NCc1nc(-c2ccccc2)c[nH]1)Nc1ncc(Sc2ccccc2)s1 yielded an IC50 [1] greater than 33 µM, an MIC (Streptococcus pneumoniae) of 2 µg/mL (≈ 4.91 µM) and an IC50 [2] of 0.037 µM.

CS(=O)(=O)c1ccc2nc(NC(=O)NCc3nc4ccccc4[nH]3)sc2c1 was tested, and the IC50 [1] was greater than 32 µM, the MIC (Streptococcus pneumoniae) was 4 µg/mL (≈ 9.96 µM) and the IC50 [2] was 0.74 µM.

Work on Cc1ccc2nc(NC(=O)NCc3nc4ccccc4[nH]3)sc2c1 yielded an IC50 [1] greater than 32 µM, an MIC (Streptococcus pneumoniae) of 16 µg/mL (≈ 47.4 µM) and an IC50 [2] of 2.6 µM.

O=C(NCc1nc(-c2ccccc2)c[nH]1)Nc1nc(-c2ccccc2)cs1 gave an IC50 [1] greater than 32 µM and an IC50 [2] greater than 32 µM.

O=C(NCc1nc(-c2ccccc2)c[nH]1)Nc1ncc(-c2ccccc2)s1 gave an IC50 [1] greater than 32 µM, an MIC (Streptococcus pneumoniae) of 4 µg/mL (≈ 10.7 µM) and an IC50 [2] of 0.38 µM.

With O=C(NCc1ncc(-c2ccccc2)[nH]1)Nc1ncc(Sc2ccccn2)s1 the IC50 [1] was greater than 32 µM and the MIC (Streptococcus pneumoniae) was 2 µg/mL (≈ 4.9 µM).

Compound COc1cccc2sc(NC(=O)NCc3nc4ccccc4[nH]3)nc12 has an IC50 [1] greater than 32 µM and an IC50 [2] greater than 32 µM.

In the case of CS(=O)(=O)c1ccc2nc(NC(=O)NCc3nc(-c4ccccc4)c[nH]3)sc2c1, the IC50 [1] is reported as greater than 32 µM, the MIC (Streptococcus pneumoniae) is reported as 0.5 µg/mL (≈ 1.17 µM) and the IC50 [2] is reported as 0.088 µM.

CS(=O)(=O)c1ccc2nc(NC(=O)NCc3cccnc3)sc2c1 was tested, and the IC50 [1] was greater than 32 µM, the MIC (Streptococcus pneumoniae) was greater than 32 µg/mL and the IC50 [2] was 23 µM.

In the case of O=C(NCc1ncc(-c2ccc(Cl)c(Cl)c2)[nH]1)Nc1ncc(Sc2ccccn2)s1, the IC50 [1] is reported as greater than 32 µM, the MIC (Streptococcus pneumoniae) is reported as 1 µg/mL (≈ 2.09 µM) and the IC50 [2] is reported as 0.0037 µM.

For O=C(NCc1ncc(-c2ccc(Br)cc2)[nH]1)Nc1ncc(Sc2ccccn2)s1, the IC50 [1] was greater than 32 µM, the MIC (Streptococcus pneumoniae) was 0.25 µg/mL (≈ 0.513 µM) and the IC50 (K562) was greater than 20 µM.

For CS(=O)(=O)c1ccc2nc(NC(=O)NCc3cccs3)sc2c1, the IC50 [1] was greater than 32 µM, the MIC (Streptococcus pneumoniae) was greater than 32 µg/mL and the IC50 [2] was 30 µM.
